Source: the NIST ThermoML archive (doi:10.1021/je200836x)

Assay: mn = molality of the nth substance listed, in mol/kg
Conditions: 101 kPa, Liquid; for molar conductivity: Alternating current cell with electrodes; for mass density: Vibrating tube method

O=C([O-])c1ccccc1.[Na+] [sodium benzoate] + O
Conditions	mass density, 298.15 K [kg/m3]	molar conductivity, 278.15 K [S·m2/mol]	molar conductivity, 283.15 K [S·m2/mol]	molar conductivity, 288.15 K [S·m2/mol]	molar conductivity, 293.15 K [S·m2/mol]	molar conductivity, 298.15 K [S·m2/mol]	molar conductivity, 303.15 K [S·m2/mol]	molar conductivity, 308.15 K [S·m2/mol]	molar conductivity, 313.15 K [S·m2/mol]
m1 = 0.0002136	–	0.004828	0.005584	0.006384	0.007233	0.00812	0.009043	0.01	0.01098
m1 = 0.0004649	–	0.00479	0.005542	0.006339	0.007182	0.008063	0.008982	0.009936	0.01091
m1 = 0.0007334	–	0.004765	0.005514	0.006308	0.007149	0.008027	0.00894	0.009881	0.01085
m1 = 0.0009986	–	0.004746	0.005493	0.006283	0.007122	0.007986	0.008891	0.009829	0.0108
m1 = 0.001299	–	0.00473	0.005474	0.006253	0.007089	0.007958	0.00886	0.009801	0.01078
m1 = 0.0016	–	0.004708	0.005448	0.006234	0.007064	0.007933	0.008837	0.00977	0.01073
m1 = 0.001996	–	0.00469	0.005428	0.006211	0.007037	0.007901	0.008801	0.009733	0.01071
m1 = 0.002488	–	0.004671	0.005407	0.00619	0.00701	0.007872	0.00877	0.009663	0.01063
m1 = 0.003107	–	0.004649	0.00538	0.006164	0.006978	0.007811	0.008706	0.009625	0.01059
m1 = 0.003832	–	0.004634	0.005362	0.006129	0.006945	0.007796	0.008683	0.009598	0.01055
m1 = 0.00495	997.26	0.004604	0.00532	0.006084	0.006895	0.007742	0.008623	0.009539	0.01048
m1 = 0.08466	1001.94	–	–	–	–	–	–	–	–

Cc1ccc(C(=O)[O-])c(O)c1.[Na+] [sodium 2-hydroxy-4-methylbenzoate] + O
Conditions	mass density, 298.15 K [kg/m3]	molar conductivity, 278.15 K [S·m2/mol]	molar conductivity, 283.15 K [S·m2/mol]	molar conductivity, 288.15 K [S·m2/mol]	molar conductivity, 293.15 K [S·m2/mol]	molar conductivity, 298.15 K [S·m2/mol]	molar conductivity, 303.15 K [S·m2/mol]	molar conductivity, 308.15 K [S·m2/mol]	molar conductivity, 313.15 K [S·m2/mol]
m1 = 0.0008766	–	0.004463	0.005159	0.005899	0.006679	0.007495	0.008345	0.009213	0.01012
m1 = 0.001205	–	0.004451	0.005145	0.00588	0.006648	0.007462	0.008308	0.009184	0.01008
m1 = 0.001572	–	0.004436	0.005122	0.005855	0.006629	0.007439	0.008283	0.009158	0.01005
m1 = 0.001976	–	0.004416	0.005105	0.005835	0.006608	0.007414	0.008258	0.009136	0.01003
m1 = 0.002453	–	0.004401	0.005087	0.005815	0.006584	0.007387	0.008225	0.009092	0.009964
m1 = 0.00301	–	0.004382	0.005065	0.00579	0.006555	0.007356	0.008178	0.009044	0.009933
m1 = 0.003696	–	0.004364	0.005044	0.005765	0.006518	0.007314	0.008146	0.009009	0.009892
m1 = 0.004538	–	0.004345	0.005022	0.005734	0.006493	0.007285	0.008112	0.008969	0.009844
m1 = 0.005464	997.441	0.004332	0.004993	0.005707	0.006462	0.007251	0.008073	0.008927	0.009798
m1 = 0.09872	1004.12	–	–	–	–	–	–	–	–

Cc1cccc(C(=O)O)c1[O-].[Na+] [sodium 2-hydroxy-3-methylbenzoate] + O
Conditions	mass density, 298.15 K [kg/m3]	molar conductivity, 278.15 K [S·m2/mol]	molar conductivity, 283.15 K [S·m2/mol]	molar conductivity, 288.15 K [S·m2/mol]	molar conductivity, 293.15 K [S·m2/mol]	molar conductivity, 298.15 K [S·m2/mol]	molar conductivity, 303.15 K [S·m2/mol]	molar conductivity, 308.15 K [S·m2/mol]	molar conductivity, 313.15 K [S·m2/mol]
m1 = 0.0001789	–	0.004702	0.005436	0.006213	0.007035	0.007891	0.008781	0.009702	0.01065
m1 = 0.0004159	–	0.004659	0.005386	0.006159	0.006975	0.007824	0.008709	0.009625	0.01056
m1 = 0.0007115	–	0.004632	0.005354	0.006119	0.006928	0.007773	0.008653	0.009562	0.01049
m1 = 0.001003	–	0.004611	0.00533	0.006091	0.006896	0.007731	0.008606	0.009511	0.01044
m1 = 0.001322	–	0.004591	0.005306	0.00606	0.006862	0.007698	0.00857	0.00947	0.0104
m1 = 0.001698	–	0.004566	0.005277	0.006032	0.00683	0.007665	0.008535	0.009432	0.01036
m1 = 0.002088	–	0.004547	0.005256	0.006008	0.006803	0.007632	0.008498	0.009395	0.01031
m1 = 0.002646	–	0.004526	0.005232	0.005981	0.006772	0.007599	0.008457	0.009327	0.01024
m1 = 0.003288	–	0.004504	0.005206	0.005951	0.006738	0.007542	0.008399	0.009286	0.0102
m1 = 0.004113	–	0.004483	0.005178	0.005905	0.006688	0.007504	0.008356	0.00924	0.01015
m1 = 0.005007	997.408	0.004457	0.00514	0.005873	0.00665	0.007462	0.008307	0.009184	0.01009
m1 = 0.09201	1003.59	–	–	–	–	–	–	–	–
